The assay concerns the target T1, human GCS (glucosylceramide synthase) (Homo sapiens, UniProt Q16739).
T1 construct: made in house; host or cells: Expi293F cells (transient expression; microsome fraction)
T1 sequence (Q16739 1-394): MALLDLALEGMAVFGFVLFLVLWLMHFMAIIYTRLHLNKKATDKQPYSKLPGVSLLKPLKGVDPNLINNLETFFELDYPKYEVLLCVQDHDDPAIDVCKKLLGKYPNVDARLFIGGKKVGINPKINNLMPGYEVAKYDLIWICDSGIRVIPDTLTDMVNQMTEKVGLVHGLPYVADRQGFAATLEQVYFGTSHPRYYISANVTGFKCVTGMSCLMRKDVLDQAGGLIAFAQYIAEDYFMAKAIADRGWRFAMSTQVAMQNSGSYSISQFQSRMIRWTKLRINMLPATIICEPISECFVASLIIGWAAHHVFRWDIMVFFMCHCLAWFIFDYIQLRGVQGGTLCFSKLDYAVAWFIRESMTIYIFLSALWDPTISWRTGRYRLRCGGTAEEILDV
Briefly: Glucosylceramide Synthase (GCS) Assay. The class given is biochemical. The note with it: test compound 10 μM; microsome fraction of Expi293F cells expressing human GCS; 1.7 μM UDP-glucose, 3 μM C8 ceramide; room temperature 60 min; C8 glucosylceramide by Rapidfire MS/MS; read-out: GCS enzyme inhibitory rate at 10 μM (%). In short, it runs like this: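 Test compounds were run at a final 10 μM against liposomal C8 ceramide (3 μM) and UDP-glucose at its Km (1.7 μM). Human GCS came as microsomes from transfected Expi293F cells, incubated 60 min at room temperature, pH 7.5. Product measured by RapidFire MS/MS; 0% and 100% inhibition were DMSO and no-enzyme wells.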
As for `Cc1cc(C(=O)Nc2ccc(C(C)(C)O)nc2)c(=O)n(-c2ccccc2OCC(F)F)n1` [Example 135, 2-[2-(2,2-difluoroethoxy)phenyl]-N-[6-(2-hydroxypropan-2-yl)pyridin-3-yl]-6-methyl-3-oxo-2,3-dihydropyridazine-4-carboxamide], the inhibition at 10 µM came to 98%. With `O=C(Nc1ccc(C(F)(F)F)nn1)c1cccn(-c2ccc(F)cc2OCC(F)(F)F)c1=O` [Example 38, 1-[4-fluoro-2-(2,2,2-trifluoroethoxy)phenyl]-2-oxo-N-[6-(trifluoromethyl)pyridazin-3-yl]-1,2-dihydropyridine-3-carboxamide], the inhibition at 10 µM turned out to be 97%. On to `O=C(Nc1ccc(OCC(F)(F)F)nc1)c1cccn(-c2ccc(F)cc2OCC(F)F)c1=O` [Example 101, 1-[2-(2,2-difluoroethoxy)-4-fluorophenyl]-2-oxo-N-[6-(2,2,2-trifluoroethoxy)pyridin-3-yl]-1,2-dihydropyridine-3-carboxamide], for which the inhibition at 10 µM is 99%. For `O=C(Nc1ccc(OCC2CC2)cc1)c1cccn(-c2ccc(F)cc2OCC(F)(F)F)c1=O` [Example 50, N-[4-(cyclopropylmethoxy)phenyl]-1-[4-fluoro-2-(2,2,2-trifluoroethoxy)phenyl]-2-oxo-1,2-dihydropyridine-3-carboxamide], the inhibition at 10 µM turned out to be 100%. For the compound `O=C(Nc1ccc(C(O)(C(F)F)C(F)F)nc1)c1cccn(-c2ccnnc2OCC(F)(F)F)c1=O` [Example 122, 2-oxo-N-[6-(1,1,3,3-tetrafluoro-2-hydroxypropan-2-yl)pyridin-3-yl]-1-[3-(2,2,2-trifluoroethoxy)pyridazin-4-yl]-1,2-dihydropyridine-3-carboxamide], the inhibition at 10 µM worked out at 95%. In the case of `O=C(Nc1ccc(C(O)(C(F)F)C(F)F)cc1F)c1ccnn(-c2ccccc2OCC(F)F)c1=O` [Example 157, 2-[2-(2,2-difluoroethoxy)phenyl]-N-[2-fluoro-4-(1,1,3,3-tetrafluoro-2-hydroxypropan-2-yl)phenyl]-3-oxo-2,3-dihydropyridazine-4-carboxamide] it was 100%.

Regarding `Cc1cc(C(=O)Nc2ccc(C(C)O)cc2)c(=O)n(-c2ccccc2OCC(F)F)n1` (racemic) [Example 139, rac-2-[2-(2,2-difluoroethoxy)phenyl]-N-[4-(1-hydroxyethyl)phenyl]-6-methyl-3-oxo-2,3-dihydropyridazine-4-carboxamide], the inhibition at 10 µM stood at 99%.

As for `O=C(Nc1cnc(C(F)(F)F)cn1)c1cccn(-c2ccc(F)cc2OCC(F)(F)F)c1=O` [Example 37, 1-[4-fluoro-2-(2,2,2-trifluoroethoxy)phenyl]-2-oxo-N-[5-(trifluoromethyl)pyrazin-2-yl]-1,2-dihydropyridine-3-carboxamide], the inhibition at 10 µM came to 83%. On to `COC(C)(C)c1ccc(NC(=O)c2cccn(-c3ccc(F)cc3OCC(F)(F)F)c2=O)cn1` [Example 91, 1-[4-fluoro-2-(2,2,2-trifluoroethoxy)phenyl]-N-[6-(2-methoxypropan-2-yl)pyridin-3-yl]-2-oxo-1,2-dihydropyridine-3-carboxamide], for which the inhibition at 10 µM is 89%. For the compound `Cc1cc(C(=O)Nc2ccc(C(O)(C(F)F)C(F)F)cc2)c(=O)n(-c2ccccc2OCC(F)F)n1` [Example 152, 2-[2-(2,2-difluoroethoxy)phenyl]-6-methyl-3-oxo-N-[4-(1,1,3,3-tetrafluoro-2-hydroxypropan-2-yl)phenyl]-2,3-dihydropyridazine-4-carboxamide], the inhibition at 10 µM came out at 100%.

For the compound `O=C(Nc1ccc(COCC(F)(F)F)nc1)c1cccn(-c2ccccc2OCC(F)(F)F)c1=O` [Example 74, 2-oxo-N-{6-[(2,2,2-trifluoroethoxy)methyl]pyridin-3-yl}-1-[2-(2,2,2-trifluoroethoxy)phenyl]-1,2-dihydropyridine-3-carboxamide], the inhibition at 10 µM worked out at 99%.

Turning to `CC(C)(O)c1ccc(NC(=O)c2cccn(-c3ccc(F)cc3OCC(F)(F)F)c2=O)cc1F` [Example 83, N-[3-fluoro-4-(2-hydroxypropan-2-yl)phenyl]-1-[4-fluoro-2-(2,2,2-trifluoroethoxy)phenyl]-2-oxo-1,2-dihydropyridine-3-carboxamide], the inhibition at 10 µM came to 98%. For the compound `CC(O)(c1ccc(NC(=O)c2cccn(-c3ccnnc3OCC(F)(F)F)c2=O)cn1)C(F)(F)F` (racemic) [Example 121, rac-2-oxo-1-[3-(2,2,2-trifluoroethoxy)pyridazin-4-yl]-N-[6-(1,1,1-trifluoro-2-hydroxypropan-2-yl)pyridin-3-yl]-1,2-dihydropyridine-3-carboxamide], the inhibition at 10 µM came out at 90%. On to `O=C(Nc1ccc(C(O)(C(F)(F)F)C(F)(F)F)cc1)c1cccn(-c2ccc(F)cc2OCC(F)(F)F)c1=O` [Example 103, 1-[4-fluoro-2-(2,2,2-trifluoroethoxy)phenyl]-N-[4-(1,1,1,3,3,3-hexafluoro-2-hydroxypropan-2-yl)phenyl]-2-oxo-1,2-dihydropyridine-3-carboxamide], for which the inhibition at 10 µM is 100%. As for `O=C(Nc1ccc(OCC(F)(F)F)nc1)c1cccn(-c2ccnnc2OCC(F)(F)F)c1=O` [Example 79, 2-oxo-1-[3-(2,2,2-trifluoroethoxy)pyridazin-4-yl]-N-[6-(2,2,2-trifluoroethoxy)pyridin-3-yl]-1,2-dihydropyridine-3-carboxamide], the inhibition at 10 µM was found to be 87%. Consider `CC(C)(O)Cn1cc(C(=O)Nc2ccc(C(O)(C(F)F)C(F)F)nc2)c(=O)c(-c2ccccc2OCC(F)F)n1` [Example 178, 6-[2-(2,2-difluoroethoxy)phenyl]-2-(2-hydroxy-2-methylpropyl)-5-oxo-N-[6-(1,1,3,3-tetrafluoro-2-hydroxypropan-2-yl)pyridin-3-yl]-2,5-dihydropyridazine-4-carboxamide], for which the inhibition at 10 µM worked out at 97%. For the compound `CC(C)(O)c1ccc(NC(=O)c2cn(CC3COC3)nc(-c3ccccc3OCC(F)F)c2=O)cc1` [Example 180, 6-[2-(2,2-difluoroethoxy)phenyl]-N-[4-(2-hydroxypropan-2-yl)phenyl]-2-[(oxetan-3-yl)methyl]-5-oxo-2,5-dihydropyridazine-4-carboxamide], the inhibition at 10 µM turned out to be 96%. On to `CC(C)Cn1cc(NC(=O)c2cccn(-c3ccc(F)cc3OCC(F)(F)F)c2=O)cn1` [Example 33, 1-[4-fluoro-2-(2,2,2-trifluoroethoxy)phenyl]-N-[1-(2-methylpropyl)-1H-pyrazol-4-yl]-2-oxo-1,2-dihydropyridine-3-carboxamide], for which the inhibition at 10 µM came out at 76%. In the case of `COc1ccc(NC(=O)c2cccn(-c3ccccc3OCC(F)(F)F)c2=O)cn1` [Example 13, N-(6-methoxypyridin-3-yl)-2-oxo-1-[2-(2,2,2-trifluoroethoxy)phenyl]-1,2-dihydropyridine-3-carboxamide], the inhibition at 10 µM was 96%.

Consider `O=C(Nc1ccc(Cl)cc1)c1cccn(-c2ccccc2OCC(F)(F)F)c1=O` [Example 14, N-(4-chlorophenyl)-2-oxo-1-[2-(2,2,2-trifluoroethoxy)phenyl]-1,2-dihydropyridine-3-carboxamide], for which the inhibition at 10 µM came to 99%. `Cn1cc(C(=O)Nc2ccc(C(C)(C)C#N)cc2)c(=O)c(-c2ccccc2OCC(F)(F)F)n1` [Example 190, N-[4-(2-cyanopropan-2-yl)phenyl]-2-methyl-5-oxo-6-[2-(2,2,2-trifluoroethoxy)phenyl]-2,5-dihydropyridazine-4-carboxamide]: the inhibition at 10 µM came to 100%.

Values taken from patent US20220289679A1, “HETEROCYCLIC COMPOUND” (Takeda Pharmaceutical Company Limited, priority 2019, published 2022).
